Experiments:
[1] = tested on: MatB subline selected for resistance to nitrogen mustards; test: Melphalan resistance of MatB subline in vivo; parameters: species or system rat
[2] = tested on: WBC; test: Bone marrow suppression, WBC counts; format: in vivo, Fischer (F344) rat; settings: for myelosuppression (WBC): 1 week after 125 mg/kg i.v.
Experimental: (§1) FIGS. 1A and 1B show peripheral blood counts obtained in tumor-bearing rats that received saline or ifosfamide treatment. […] There were 3-5 animals in each group. The following abbreviations etc. apply:
(§2) Determination of Myelotoxicity
(§3) For the studies of myelotoxicity, at least three animals/groups had blood obtained by cardiac puncture with a 23-gauge needle. The samples were heparinized and both WBC and platelet counts were determined using a Coulter Counter.
(§4) Measurements were made prior to and 1 week after i.v. injection of 125 mg/kg of (R,S)-, (R)-, or (S)-ifosfamide. […] In the presence of a tumor, the effects of a colony-stimulating factor are evidenced by higher WBC even prior to drug administration. Because the WBC progressively rises over time with exposure to the tumor, the intergroup variation in absolute WBC relates to differences in time from tumor inoculation to baseline WBC measurement and then drug administration.

[3] = tested on: non-tumor-bearing Fischer 344 rats; test: Lethality (non-tumor bearing), within 7-10 days after administration; format: in vivo, Fischer 344 rat
Experimental: Lethality (Non-Tumor Bearing)
The toxicity was assessed by lethality within 7-10 days after administration of (R)-, (S)-, or (R,S)-ifosfamide in non-tumor-bearing Fischer 344 rats.

[4] = Pharmacokinetics in rat plasma (GC-MS), AUC
[5] = Incubation with human liver microsomes, 2 and 3-dechlorometabolites by chiral assays; format: in vitro ADME; settings: for 2 and 3-dechloro metabolites produced, R and S-ifosfamide incubated separately: separate enantiomers, compared with racemate results
[6] = tested on: childhood rhabdomyosarcoma (HxRh28); settings: immunoincompetent female CBA/CaJ mice; cited from earlier work
[7] = tested on: tumor-bearing F344 rats (MatB rat mammary carcinoma); test: Lethality (tumor-bearing), toxic deaths; format: in vivo; settings: for toxic deaths (of animals treated): tumor-bearing
Experimental: (§5) In order to help clarify the relative efficacies and toxicities of (S)-IFF and (R)-IFF, the effect of these enantiomers in F344 rats was investigated. Both non-tumor-bearing animals and those bearing a MatB rat mammary carcinoma were used in this study. The relative lethality, bone marrow suppression, weight loss, antitumor activity, and pharmacokinetics were determined for (R)-IFF, (S)-TFF and (R,S)-IFF.
Animal Model and Tumor Cells
(§6) MatB cells are maintained in vitro in α-minimum essential medium (GIBCO, Grand Island, N.Y.) supplemented with 1.3% sodium pyruvate, 2.6% glutamine, 1.3% non-essential amino acids, 10% fetal calf serum, and 100 units/ml gentamicin. Cells are maintained at 37° C. under 5% CO2. A suspension of 5×10^5 cells is injected s.c. into the flanks of female F344 rats weighing 160-200 g. Within 7-10 days, when there is a palpable nodule, the rats are lightly anesthetized with ether, and a single i.v. dose of ifosfamide is injected via the tail vein. The tumor size and animal weights are monitored every other day. On the basis of the conventional rat human dose conversion factor of 1:7 and idealised human body weights and surface areas of 70 kg and 1.5 m^2, the dose of 100 mg/kg in the rat represents approximately 600 mg/m^2 in humans, which is in the general range of clinical single doses, as described by De Kraker, supra. Statistical analysis was performed using an impaired Student's s test or Pearson's .chi.^2 analysis.
There were differences resulting in the presence of a tumor in these animals with regard to the effects of these treatments, and the data are therefore presented for each situation separately.

[8] = tested on: platelets; test: Bone marrow suppression, platelet counts; format: in vivo, Fischer (F344) rat; settings: for thrombocytopenia: 1 week after 125 mg/kg i.v.
Experimental: as §1, §2, §3, §4

[9] = Weight loss, every-other-day measurements; format: in vivo, F344 rat; settings: 125 mg/kg
Experimental: as §6
Weight loss was determined by every-other-day measurements of groups of at least three rats.

[10] = tested on: MatB rat mammary carcinoma; test: Antitumor efficacy in rats, enantiomer comparison; format: in vivo, Fischer (F344) rat; settings: R-isomer; summary statement
Experimental: as §5
as §6, with “Statistical analysis was performed using an impaired Student's s test or Pearson's .chi.^2 analysis.” left out

[11] = CNS toxicity monitoring in 7 female cancer patients; format: in vivo, human; settings: racemate 3 g/m^2, 3 h infusion, mesna
Experimental: (§7) In a first investigation, the stereoselective urinary excretion of the parent drug, i.e. racemic ifosfamide, and its metabolites, was investigated. This followed a single dose of ifosfamide in 7 female cancer patients, while monitoring for CNS toxicity.
(§8) Patients received a 3 h infusion of ifosfamide (3 g/m^2) with mesna uroprotection, total urine output was collected for 27 h, and urine samples were analysed by enantioselective gas chromatography, as described by Granvil et al, J.Chromatogr. 622:21-31 (1993).
Since ifosfamide was the sole anti-cancer drug administered for the first chemotherapy cycle, toxicity data were not confounded by the effects of other anti-neoplastic agents.

[12] = cited from earlier work
[13] = single dose; cited from earlier work
[14] = Analysis of urine of 11 patients after 3 hour infusion of racemic ifosfamide; format: in vivo, human
Experimental: This is based on the results of the analysis of the urine of 11 patients who received a 3 hour infusion of racemic ifosfamide. Patients had not received chemotherapy for a year and ifosfamide was the only drug administered during the pharmacokinetic study.

[15] = Stereoselective urinary excretion of ifosfamide and metabolites in 7 female cancer patients; format: in vivo, human; settings: patient with severe neurotoxicity vs 6 others
Experimental: as §7, §8
In patients with excessive N-dechloroethylation, R-ifosfamide could have an improved efficacy/toxicity.

[16] = CBA/CaJ mice; cited from earlier work

N[C@@H](Cc1ccc(N(CCCl)CCCl)cc1)C(=O)O [melphalan]
resistance to melphalan [1]: at least 4 fold

O=[P@]1(NCCCl)OCCCN1CCCl [(R)-IFF, dexifosfamide]
myelotoxicity in the Fischer rat ([2]; summary statement): more myelotoxic | myelosuppression (WBC) ([2]; tumor-bearing rats): significant myelosuppression | myelosuppression (WBC) ([2]; tumor-free rats): myelosuppression is observed | lethality (rats dead of rats treated) ([3]; 150 mg/kg): 2 of 4 | lethality (rats dead of rats treated) ([3]; 100 and 125 mg/kg, listed as (R)-ifosfamide): 1 of 5 | clearance compared to (S)-IFF ([4]; rat): cleared more quickly | AUC, AUCRS versus AUCR ([4]; rat plasma, 100 mg/kg i.v.): no statistically significant difference | AUC, AUCR versus AUCS ([4]; rat plasma, 100 mg/kg i.v., P<0.01): statistically significant differences | metabolism via the activation pathway, compared to (S)-IFF ([4]; rat, inferred from AUC): metabolized to a greater degree | 2 and 3-dechloro metabolites produced, R and S-ifosfamide incubated separately [5]: broadly the same | efficacy against HxRh28 xenograft, difference between stereoisomers [6]: no statistically significant differences | toxic deaths, compared to (R,S)-IFF ([7]; 125 mg/kg, chi-square): no difference | toxic deaths, (R)-IFF compared to (S)-IFF ([7]; 125 mg/kg, chi-square, P=0.017): significant difference | toxic deaths, (R)-IFF versus either (S)-IFF or (R,S)-IFF ([7]; 150 mg/kg, P=0.067): no significant difference | toxic deaths (of animals treated) ([7]; 100 mg/kg): 1 of 5 | toxic deaths (of animals treated) ([7]; 125 mg/kg): 5 of 10 | toxic deaths (of animals treated) ([7]; 150 mg/kg): 5 of 5 | platelet suppression compared to (R,S)- or (S)-ifosfamide ([8]; non-tumor-bearing rats, 125 mg/kg i.v., P<0.05): greater platelet suppression | thrombocytopenia ([8]; non-tumor-bearing rats): significant thrombocytopenia | weight loss [9]: appears greatest | weight loss, statistical significance [9]: significantly so only at one time point | effectiveness in treating the tumors in the rats [10]: trend to the R-isomer being more effective

O=P1(NCCCl)OCCCN1CCCl (racemic) [(R,S)-IFF, ifosfamide, reference compound]
myelosuppression (WBC) ([2]; tumor-bearing rats): significant myelosuppression | myelosuppression (WBC) ([2]; tumor-free rats): myelosuppression is observed | lethality (rats dead of rats treated) ([3]; 150 mg/kg): 2 of 4 | lethality (rats dead of rats treated) ([3]; 100 and 125 mg/kg): 1 of 5 | severe neurotoxic syndrome (patients) ([11]; 7 female patients): One patient had a severe neurotoxic syndrome | neurotoxic symptoms ([11]; one patient): somnolence, dizziness, lethargy, tremors, and hallucinations | efficacy against HxRh28 xenograft, difference between stereoisomers [6]: no statistically significant differences | CNS side-effects ([12]; oral formulation): major dose-limiting side-effect | dose at which CNS side-effects appeared, oral versus iv ([12]; oral vs iv): much lower dose | chloroacetaldehyde levels after oral dosing ([12]; oral): higher levels of chloroacetaldehyde | metabolism after oral dosing ([12]; oral): much more metabolism | toxic deaths (of animals treated) ([7]; 100 mg/kg): 0 of 5 | toxic deaths (of animals treated) ([7]; 125 mg/kg): 4 of 10 | toxic deaths (of animals treated) ([7]; 150 mg/kg): 5 of 5 | thrombocytopenia ([8]; non-tumor-bearing rats): significant thrombocytopenia | compound metabolised through the N-dechloroethylation pathway [13]: 15-50% | drug excreted unchanged [13]: 20-40%

O=[P@@]1(NCCCl)OCCCN1CCCl [(S)-IFF, levoifosfamide]
myelosuppression (WBC) ([2]; tumor-bearing rats): no such effect after (S)-IFF where the WBC is higher | myelosuppression (WBC) ([2]; tumor-free rats): not statistically significant | lethality (rats dead of rats treated) ([3]; 150 mg/kg): 0 of 4 | lethality (rats dead of rats treated) ([3]; 100 and 125 mg/kg, listed as (S)-ifosfamide): 0 of 5 | metabolism via N-dechloroethylation, compared to (R)-IFF ([4]; stated with the rat AUC results): metabolized to a greater extent | 2 and 3-dechloro metabolites produced, compared to R-ifosfamide ([5]; racemic ifosfamide incubated): greater amounts | 2 and 3-dechloro metabolites produced, R and S-ifosfamide incubated separately [5]: broadly the same | efficacy against HxRh28 xenograft, difference between stereoisomers [6]: no statistically significant differences | origin of side-chain metabolites in urine [14]: side-chain metabolites come from S-ifosfamide more than from R-ifosfamide | toxic deaths, compared to (R,S)-IFF ([7]; 125 mg/kg, chi-square): no difference | toxic deaths (of animals treated) ([7]; 100 mg/kg): 0 of 5 | toxic deaths (of animals treated) ([7]; 125 mg/kg): 2 of 10 | toxic deaths (of animals treated) ([7]; 150 mg/kg, listed as (S)-ifosfamide): 3 of 5 | thrombocytopenia ([8]; non-tumor-bearing rats): significant thrombocytopenia | platelet suppression compared to (R)- or (R,S)-ifosfamide ([8]; tumor-bearing rats, 125 mg/kg i.v.): significantly less | excretion of dechloroethylated metabolites from S-ifosfamide [15]: much higher excretion | plasma pharmacokinetics, differences [16]: No statistically significant differences

From patent US6037337A (priority 1994, dated 2000)
